{"source": "paper PMC12266748", "about": "“A Xanthine Derivative With Novel Heat Shock Protein 90‐Alpha Inhibitory and Senolytic Properties” (Aging Cell, 2025)", "key": {"MCF7 cells [1]": {"test_system": "MCF7 cells", "assay": "Western blot of MCF7 protein expression after Tamoxifen treatment", "assay_type": "cell-based, Homo sapiens", "details": "MCF7, TAM 10 μM + K5 10 μM, compared to DMSO", "description": "WB was performed according to standard procedures and detected by UVITEC (Eppendorf). Densitometric analysis was performed with NIH ImageJ 1.8 software.\nWestern Blot. WB was performed according to standard procedures. Total protein extract was performed as in (Aiello et al. 2016). Western blot assay used 10 µg of protein extract and proteins solved by SDS-PAGE. […] Densitometric analysis was performed with NIH Image J 1.8 software (National Institutes of Health, Bethesda, MD, USA), and specific values were normalized to loading control (β-Actin)."}, "[2]": {"assay": "Mouse plasma exposure after oral and intravenous administration, brain and kidney distribution", "assay_type": "in vivo, CD1 mouse", "details": "for Kp: CD1, mouse, relative to plasma; for half-life: read-out: T ½ in plasma", "description": "APHAD S.r.l (Buccinasco, MI, Italy) performed all evaluations. Detailed protocols are reported in the extended methods section.\nDetermination of the mouse plasma exposure of K5 after oral […] and intravenous (IV) administration. Determination of K5 distribution in brain and kidney after IV administration. Weighed tissues were homogenized with a Precellys Evolution Homogenizer 1g/5mL of 20 mM ammonium formate buffer pH 6.5 using 3 cycles 25 sec at a speed of 7600 rpm. Plasma or tissue was added to ACN containing Verapamil as Internal standard (0.1 µM) in a […]. Samples were shaken for 10 min at 300 rpm at RT and centrifuged for 15 min at 10°C at 4700 rpm. Working solutions (WS) for the calibration curves and QC samples were prepared by diluting ACN in the range 10-20000ng/mL range. Verapamil was diluted in ACN to reach the final concentration of 0.1 µM (WS_IS). Samples were analyzed on an Acquity UPLC (Waters) coupled with an API 3200 Triple Quadrupole ABSciex. Non-compartmental analysis was applied, and the following pharmacokinetic (PK) parameters were evaluated for each subject or group of subjects: maximum plasma concentration (Cmax), plasma concentration at last timepoint (Clast), time of maximum plasma concentration (Tmax), AUC from time zero to the time of the last quantifiable plasma concentration (AUC0-last), AUC from time zero extrapolated to infinity (AUCinf), mean residence time (MRT), half-life (T½). AUCs were calculated using a linear trapezoidal rule, and a uniform weight was performed as the first general approach. Graphical concentration-time curves are produced after Log transformation (PK Solver 2.0, Excel 2007 Microsoft add-in). The ke was estimated from the terminal part of the log-concentration time plot, which included at least three data points excluding the Cmax. If the terminal phase regression based on R2 was less than 0.85, then the T½ and the AUC0-inf were not reported."}, "Drosophila melanogaster": {"test_system": "Drosophila melanogaster", "assay": "Drosophila melanogaster lifespan assay", "assay_type": "in vivo", "description": "Experiments were carried out with wild‐type Canton‐S Drosophila melanogaster, originating (Stock #64349) from the Bloomington Drosophila Stock Centre (Indiana University). Flies were reared on Nutri‐Fly Bloomington Formulation food medium (Genesee Scientific). Vials containing only fresh food were alternated with vials containing food supplemented with K5. The number of living flies was counted every 2–3 days. Detailed protocols are reported in the extended section.\nDrosophila melanogaster maintenance and lifespan assays. All experiments were carried out with wild-type Canton-S Drosophila melanogaster. Canton-S flies originated (Stock #64349) from the Bloomington Drosophila Stock Centre (Indiana University, Bloomington, IN, USA). Flies were reared on Nutri-Fly Bloomington Formulation food medium (Genesee Scientific, El Cajon, CA, USA) prepared using 176 g of Nutri-Fly per liter of distilled H2O. After cooling to 70°C, 4.8 mL of propionic acid (Merck KGaA, Darmstadt, Germany) per liter of food was added. Flies were maintained at constant temperature (25.0 ± 0.2°C) with 60% relative humidity on a 12 h:12 h 300 lux light-dark cycle generated by a 4000°K LED lamp (Fridge 1.5W, Ecoman Italia S.r.l., Frascati, Italy).\nFor lifespan assays, newly enclosed Drosophila melanogaster (1 to 2 days old) were collected and placed separately in vials (each containing 10 male and 10 female flies). Two experiments were performed. In the first experiment, 300 flies were randomly divided into three groups (CTRL, K5 10 µg/mL, and K5 100 µg/mL). Vials containing only fresh food (Nutri-Fly Bloomington Formulation food medium) were alternated 3 times a week with vials containing food supplemented with K5. The K5 was dissolved in DMSO and then diluted 1:10 in corn oil. 5 µL of corn oil (containing 0, 10 µg, or 100 µg of K5) was added to each mL of freshly prepared Nutri-Fly Bloomington Formulation food medium. In the second experiment, 900 flies were divided by sex into CTRL group and K5 10 µg/mL treated group. […] All experiments counted the number of living flies every 2–3 days."}, "MCF7 cells [3]": {"test_system": "MCF7 cells", "assay": "Immunofluorescence of Cytochrome C / mitochondria colocalization in senescent MCF7", "assay_type": "cell-based, Homo sapiens", "details": "MCF7, TAM 10 µM 96 h, then 72 h K5 10 µM or Dasatinib 1 µM", "description": "Treated/untreated senescent IMR90 and MCF7 cells were fixed, permeabilized, and stained following suppliers' recommendations. Images were acquired using an Olympus IX83 research inverted microscope (IF) and a phase microscopy Nikon ECLIPSE Ei R (IHC) at 40× MAG.\nImmunofluorescence staining. Treated/untreated IMR90 and MCF7 cells were cultured in LabTek II chamber slides (Nunc, Biosigma). At the final time point, cells were stained with 500 nM MitoTracker Orange (Thermo Fisher Scientific) for 30 min at 37°C and then fixed in 4% PFA (Merck) for 10 min, RT, and permeabilized with 0.1% Triton solution (Merck) for 30 min at RT. Samples were blocked in 5% BSA for 90 min, incubated overnight at 4°C with primary antibody against Cytochrome C (1:50, RbMAb, Abcam), and 1h at RT with secondary antibody Alexa Fluor 488 goat anti-Rb (1:200, Thermo Fisher Scientific). Nuclei were stained with DAPI (Cell Signaling) for 10 min at RT, and ProLong Glass Antifade Mountant (Thermo Fisher Scientific) was used to seal coverslips. Images were acquired using an Olympus IX83 research inverted microscope at 40X magnifications."}, "[4]": {"details": "plasma, oral 30 mg/kg, CD1 mouse"}}, "note": "Where two headings read alike, the source gives them in different places.", "data": [{"smiles": "Cc1ccccc1-n1c(=O)n(Cc2ccccc2)c(=O)c2[nH]cnc21", "note": "[Compound K5, 1-benzyl-3-(2-methylphenyl)-7H-purine-2,6-dione]", "values": [{"measurement": "Caspase 3 protein level", "setting": "MCF7 cells [1]", "value": "further increased"}, {"measurement": "Kp", "setting": "[2]; brain, IV 5 mg/kg, read-out: distribution in the brain", "value": 0.35}, {"measurement": "Kp", "setting": "[2]; kidney, IV 5 mg/kg, read-out: distribution in the kidney", "value": 1.31}, {"measurement": "distribution volume", "setting": "[2]; IV 5 mg/kg, CD1 mouse", "value": "high"}, {"measurement": "time of Cmax", "setting": "[2]; oral 30 mg/kg, CD1 mouse", "value": 10, "unit": "min"}, {"measurement": "clearance", "setting": "[2]; plasma, IV 5 mg/kg, CD1 mouse", "value": 38, "unit": "mL/min/kg"}, {"measurement": "half-life", "setting": "[2]; plasma, IV 5 mg/kg, CD1 mouse", "value": 13, "unit": "min"}, {"measurement": "bioavailability", "setting": "[2]; plasma, oral 30 mg/kg vs IV 5 mg/kg, CD1 mouse", "value": 54, "unit": "%"}, {"measurement": "Cmax", "setting": "[2]; [4]", "value": 2800, "unit": "ng/mL"}, {"measurement": "half-life", "setting": "[2]; [4]", "value": "~300", "unit": "min"}, {"measurement": "MRT", "setting": "[2]; plasma, oral 30 mg/kg, CD1 mouse, read-out: mean residence time (MRT) (converted)", "value": "~5", "unit": "h"}, {"measurement": "effect on lifespan, preliminary treatment", "setting": "Drosophila melanogaster; K5 10 μg/mL and 100 μg/mL, 100 flies per group, p = 0.034", "value": "significant overall difference in lifespan"}, {"measurement": "increase of average lifespan compared to controls", "setting": "Drosophila melanogaster; K5 10 μg/mL in food from day 20, n = 884", "value": 6.63, "unit": "%"}, {"measurement": "average lifespan of treated flies", "setting": "Drosophila melanogaster; K5 10 μg/mL in food from day 20, n = 884, controls 47.54 days ± 0.74 SE", "value": 50.69, "unit": "days"}, {"measurement": "Cytochrome C / mitochondria colocalization, Overlap R (OR)", "setting": "MCF7 cells [3]; TAM + Vehicle OR = 0.978", "value": 0.896}, {"measurement": "Cytochrome C / mitochondria colocalization, Pearson's Rr (PRr)", "setting": "MCF7 cells [3]; TAM + Vehicle PRr = 0.961", "value": 0.810}]}]}
